According to the supplement of paper PMC10307832:

Columns and labels:
Assay in all cases: relative viability (nuclei count vs DMSO), 5 days (fraction); higher = more cells survive
[1] = tested on: A-427
Outline: (§1)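 Relative viability equals treated-well nuclei counts divided by vehicle-well nuclei counts. Counts came from 4× images of lung cancer cell lines grown in 1536-well plates for 5 days after pin-tool dosing on the day after seeding. Dosing used one drug alone or a fixed anchor-drug dose plus five library-drug doses (not always all listed) in √10 steps, and values are medians of duplicate plates.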

[2] = tested on: ABC-1
Outline: as §1

[3] = tested on: EPLC-272H
Outline: as §1

[4] = tested on: HCC-15
Outline: as §1

[5] = tested on: LC-2-ad
Outline: as §1

[6] = tested on: LK-2
Outline: as §1

[7] = tested on: NCI-H1734
Outline: as §1

[8] = tested on: NCI-H1793
Outline: as §1

[9] = tested on: NCI-H1915
Outline: as §1

[10] = tested on: NCI-H1944
Outline: as §1

[11] = tested on: NCI-H2009
Outline: as §1

[12] = tested on: NCI-H2023
Outline: as §1

[13] = tested on: NCI-H2342
Outline: as §1

[14] = tested on: NCI-H2347
Outline: as §1

[15] = tested on: NCI-H322M
Outline: as §1

[16] = tested on: NCI-H358
Outline: as §1

[17] = tested on: NCI-H441
Outline: as §1

[18] = tested on: NCI-H522
Outline: as §1

[19] = tested on: NCI-H647
Outline: as §1

[20] = tested on: NCI-H838
Outline: as §1

[21] = tested on: RERF-LC-KJ
Outline: as §1

[22] = tested on: SW 1573
Outline: as §1

[23] = tested on: UMC-11
Outline: as §1

Cc1csc(=NC2CCCCC2)n1/N=C/c1ccc(O)c(O)c1O [MIM1] + O=C(c1cc(Cc2n[nH]c(=O)c3ccccc23)ccc1F)N1CCN(C(=O)C2CC2)CC1 [Olaparib] (partner 8 µM)
relative viability ([1]; first compound 0.2 µM): 0.757 | relative viability ([1]; first compound 0.6325 µM): 0.738 | relative viability ([1]; first compound 2 µM): 0.71 | relative viability ([1]; first compound 6.325 µM): 0.671 | relative viability ([1]; first compound 20 µM): 0.281 | relative viability ([2]; first compound 0.2 µM): 0.952 | relative viability ([2]; first compound 0.6325 µM): 1.27 | relative viability ([2]; first compound 2 µM): 1.03 | relative viability ([2]; first compound 6.325 µM): 0.78 | relative viability ([2]; first compound 20 µM): 0.388 | relative viability ([3]; first compound 0.2 µM): 0.664 | relative viability ([3]; first compound 0.6325 µM): 0.858 | relative viability ([3]; first compound 2 µM): 0.622 | relative viability ([3]; first compound 6.325 µM): 0.111 | relative viability ([3]; first compound 20 µM): 0.108 | relative viability ([4]; first compound 0.2 µM): 0.717 | relative viability ([4]; first compound 0.6325 µM): 0.713 | relative viability ([4]; first compound 2 µM): 0.749 | relative viability ([4]; first compound 6.325 µM): 0.39 | relative viability ([4]; first compound 20 µM): 0.115 | relative viability ([5]; first compound 0.2 µM): 0.616 | relative viability ([5]; first compound 0.6325 µM): 0.683 | relative viability ([5]; first compound 2 µM): 0.665 | relative viability ([5]; first compound 6.325 µM): 0.303 | relative viability ([5]; first compound 20 µM): 0.211 | relative viability ([6]; first compound 0.2 µM): 0.934 | relative viability ([6]; first compound 0.6325 µM): 0.75 | relative viability ([6]; first compound 2 µM): 0.472 | relative viability ([6]; first compound 6.325 µM): 0.685 | relative viability ([6]; first compound 20 µM): 0.148 | relative viability ([7]; first compound 0.2 µM): 0.58 | relative viability ([7]; first compound 0.6325 µM): 0.632 | relative viability ([7]; first compound 2 µM): 0.559 | relative viability ([7]; first compound 6.325 µM): 0.496 | relative viability ([7]; first compound 20 µM): 0.132 | relative viability ([8]; first compound 0.2 µM): 0.942 | relative viability ([8]; first compound 2 µM): 0.899 | relative viability ([8]; first compound 6.325 µM): 0.686 | relative viability ([8]; first compound 20 µM): 0.839 | relative viability ([9]; first compound 0.2 µM): 0.255 | relative viability ([9]; first compound 0.6325 µM): 0.248 | relative viability ([9]; first compound 2 µM): 0.236 | relative viability ([9]; first compound 6.325 µM): 0.203 | relative viability ([9]; first compound 20 µM): 0.133 | relative viability ([10]; first compound 0.2 µM): 0.405 | relative viability ([10]; first compound 0.6325 µM): 0.422 | relative viability ([10]; first compound 2 µM): 0.352 | relative viability ([10]; first compound 6.325 µM): 0.32 | relative viability ([10]; first compound 20 µM): 0.131 | relative viability ([11]; first compound 0.2 µM): 0.662 | relative viability ([11]; first compound 0.6325 µM): 0.655 | relative viability ([11]; first compound 2 µM): 0.723 | relative viability ([11]; first compound 6.325 µM): 0.504 | relative viability ([11]; first compound 20 µM): 0.482 | relative viability ([12]; first compound 0.2 µM): 0.501 | relative viability ([12]; first compound 0.6325 µM): 0.496 | relative viability ([12]; first compound 2 µM): 0.43 | relative viability ([12]; first compound 6.325 µM): 0.255 | relative viability ([12]; first compound 20 µM): 0.0641 | relative viability ([13]; first compound 0.2 µM): 0.432 | relative viability ([13]; first compound 0.6325 µM): 0.386 | relative viability ([13]; first compound 2 µM): 0.42 | relative viability ([13]; first compound 6.325 µM): 0.395 | relative viability ([13]; first compound 20 µM): 0.571 | relative viability ([14]; first compound 0.2 µM): 0.525 | relative viability ([14]; first compound 0.6325 µM): 0.559 | relative viability ([14]; first compound 2 µM): 0.653 | relative viability ([14]; first compound 6.325 µM): 0.508 | relative viability ([14]; first compound 20 µM): 0.469 | relative viability ([15]; first compound 0.2 µM): 0.742 | relative viability ([15]; first compound 0.6325 µM): 0.683 | relative viability ([15]; first compound 2 µM): 0.72 | relative viability ([15]; first compound 6.325 µM): 0.746 | relative viability ([15]; first compound 20 µM): 0.367 | relative viability ([16]; first compound 0.2 µM): 0.558 | relative viability ([16]; first compound 0.6325 µM): 0.533 | relative viability ([16]; first compound 2 µM): 0.516 | relative viability ([16]; first compound 6.325 µM): 0.379 | relative viability ([16]; first compound 20 µM): 0.123 | relative viability ([17]; first compound 0.2 µM): 0.485 | relative viability ([17]; first compound 0.6325 µM): 0.66 | relative viability ([17]; first compound 2 µM): 0.581 | relative viability ([17]; first compound 6.325 µM): 0.254 | relative viability ([17]; first compound 20 µM): 0.144 | relative viability ([18]; first compound 0.2 µM): 0.597 | relative viability ([18]; first compound 0.6325 µM): 0.625 | relative viability ([18]; first compound 2 µM): 0.587 | relative viability ([18]; first compound 6.325 µM): 0.725 | relative viability ([18]; first compound 20 µM): 0.466 | relative viability ([19]; first compound 0.2 µM): 0.611 | relative viability ([19]; first compound 0.6325 µM): 0.53 | relative viability ([19]; first compound 2 µM): 0.697 | relative viability ([19]; first compound 6.325 µM): 0.369 | relative viability ([19]; first compound 20 µM): 0.0666 | relative viability ([20]; first compound 0.2 µM): 0.731 | relative viability ([20]; first compound 0.6325 µM): 0.944 | relative viability ([20]; first compound 2 µM): 0.85 | relative viability ([20]; first compound 6.325 µM): 0.609 | relative viability ([20]; first compound 20 µM): 0.237 | relative viability ([21]; first compound 0.2 µM): 0.662 | relative viability ([21]; first compound 0.6325 µM): 0.557 | relative viability ([21]; first compound 2 µM): 0.197 | relative viability ([21]; first compound 6.325 µM): 0.221 | relative viability ([21]; first compound 20 µM): 0.215 | relative viability ([22]; first compound 0.2 µM): 0.515 | relative viability ([22]; first compound 0.6325 µM): 0.471 | relative viability ([22]; first compound 2 µM): 0.608 | relative viability ([22]; first compound 6.325 µM): 0.321 | relative viability ([22]; first compound 20 µM): 0.1 | relative viability ([23]; first compound 0.2 µM): 0.408 | relative viability ([23]; first compound 0.6325 µM): 0.4 | relative viability ([23]; first compound 2 µM): 0.548 | relative viability ([23]; first compound 6.325 µM): 0.237 | relative viability ([23]; first compound 20 µM): 0.183
